From the CheMixHub viscosity set

Assay: xn = mol fraction of the nth substance listed

CCCCCOC(C)=O + CCCCO
viscosity [mPa·s], 101.33 kPa
Details	x1 = 0.1138	x1 = 0.2047	x1 = 0.3089	x1 = 0.4008	x1 = 0.5	x1 = 0.6103	x1 = 0.7064	x1 = 0.8088	x1 = 0.9025
293.15 K	2.52	2.275	2.024	1.825	1.633	1.443	1.295	1.154	1.039
303.15 K	2.02	1.838	1.649	1.499	1.353	1.206	1.092	0.982	0.891
313.15 K	1.515	1.395	1.269	1.167	1.066	0.964	0.883	0.805	0.739
323.15 K	1.009	0.948	0.883	0.83	0.776	0.72	0.674	0.629	0.59

CCCCCOC(C)=O + CCCCOC(C)=O
298.15 K, 101.33 kPa
Details	viscosity [mPa·s]
x2 = 0.1116	0.834
x2 = 0.2559	0.81
x2 = 0.3941	0.787
x2 = 0.5285	0.76
x2 = 0.6578	0.738
x2 = 0.7859	0.715
x2 = 0.9088	0.694

C=CC(=O)OC + CCCCn1cc[n+](C)c1.F[B-](F)(F)F
303.15 K, 101 kPa
Details	viscosity [mPa·s]
x2 = 0.5005	16.06
x2 = 0.9242	63.95

CN(C)CCO + CCCCn1cc[n+](C)c1.F[P-](F)(F)(F)(F)F
viscosity [mPa·s], 101 kPa
Details	x1 = 0.1221	x1 = 0.2143	x1 = 0.3182	x1 = 0.4405	x1 = 0.5166	x1 = 0.605	x1 = 0.709	x1 = 0.8063	x1 = 0.9128
293.15 K	–	–	87.91	60.57	47.58	34.73	–	–	7.95
298.15 K	–	88.45	66.23	45.68	36.09	27.08	–	–	6.67
303.15 K	–	67.51	50.77	35.67	28.45	–	–	–	5.64
308.15 K	67.28	52.1	39.24	27.9	–	–	–	7.99	4.78
313.15 K	52.9	41.46	31.33	–	–	–	9.84	6.74	4.13
318.15 K	42.39	33.36	25.47	–	–	–	8.35	5.74	3.59
323.15 K	35.09	27.71	–	–	–	9.86	7.12	4.99	3.18
